PMC11325555, “Interaction of Bisphenol A and Its Analogs with Estrogen and Androgen Receptor from Atlantic Cod (Gadus morhua)” (Environmental Science & Technology, 2024)
Entries after “also recorded” stand apart in the source; their conditions may differ. Read-outs that look alike come from different tables or passages of the source.

How the values were obtained:
[1] = target: T1, Atlantic cod androgen receptor alpha (gmAra) LBD (Gadus morhua, UniProt D5FIC7); experiment: Luciferase reporter gene assay, gmAra antagonism (antiandrogenic activity), coexposure with 5 nM testosterone; type: cell-based
T1 sequence (D5FIC7 409-718): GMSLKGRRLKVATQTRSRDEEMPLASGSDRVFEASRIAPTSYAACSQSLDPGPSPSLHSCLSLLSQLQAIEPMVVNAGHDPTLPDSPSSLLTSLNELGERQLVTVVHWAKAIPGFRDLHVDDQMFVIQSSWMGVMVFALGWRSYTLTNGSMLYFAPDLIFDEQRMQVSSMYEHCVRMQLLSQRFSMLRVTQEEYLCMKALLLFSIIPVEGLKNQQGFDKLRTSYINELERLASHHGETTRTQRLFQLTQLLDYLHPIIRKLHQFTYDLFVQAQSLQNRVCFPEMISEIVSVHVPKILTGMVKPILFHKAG
Experimental: (§1) Ligand activation of gmEra and gmAra was studied with a luciferase reporter gene assay in COS-7 cells transiently transfected with the pCMX-GAL4(DBD)-gmEra(LBD) or pCMX-GAL4(DBD)-gmAra(LBD) plasmid by using the TransIT-LT1 reagent (TransIT-LT1 Transfection Reagent, Mirus). Cells were seeded into 96-well plates (5000 cells/well) and incubated for 24 h before cotransfection with the plasmid mixture (100 ng/well). The plasmid mixture contained GAL4-UAS luciferase reporter plasmid (tk-(MH100)x4 luc), the pCMX-GAL4(DBD)-gmEra(LBD) or pCMX-GAL4(DBD)-gmAra(LBD) receptor plasmids (2:1 reporter:receptor plasmid mass ratio), and a plasmid constitutively producing the β-galactosidase enzyme used for normalization of transfection efficiency (pCMV- β-Gal). […] The maximum DMSO/methanol concentrations in the exposure wells were 0.5% (v/v) in DMEM medium without phenol red (Sigma-Aldrich). After exposure, cells were lysed, and luciferase and beta-galactosidase activities were measured as luminescence and absorbance (420 nm) after the addition of luciferin and ONPG substrates, respectively, using an Enspire Multimode plate reader (PerkinElmer, Waltham, Massachusetts, USA).
(§2) The dose–response curves were created using nonlinear regression and the four-parameter logistic fit in Graphpad Prism v.9. *p < 0.05 versus solvent control by ANOVA and Dunnett’s multiple comparison post hoc test.

human Era = test system: human Era; parameters: method as in PMID 15635150; settings: cited from earlier work
[2] = target: T2, Atlantic cod estrogen receptor alpha (gmEra) LBD (Gadus morhua, UniProt U5ILH7); experiment: Luciferase reporter gene assay, gmEra agonism (estrogenic activity) in transfected COS-7 cells
T2 sequence (U5ILH7 170-455): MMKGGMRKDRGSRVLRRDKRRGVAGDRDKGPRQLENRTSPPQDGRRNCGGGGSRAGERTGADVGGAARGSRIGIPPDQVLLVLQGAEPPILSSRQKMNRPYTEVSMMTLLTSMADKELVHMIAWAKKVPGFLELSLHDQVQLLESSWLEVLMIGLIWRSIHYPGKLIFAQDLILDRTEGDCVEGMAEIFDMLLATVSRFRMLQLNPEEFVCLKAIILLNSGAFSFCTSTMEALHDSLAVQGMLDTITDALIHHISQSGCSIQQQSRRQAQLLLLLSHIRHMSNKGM
Experimental: as §1
Luciferase reporter gene assays were established with COS-7 cells transiently producing the LBD of gmEra (Figure S1) for evaluating the estrogenic potential of 12 bisphenols.
COS-7 cells transiently transfected with gmEra-LBD were exposed to EE2 (open circles), BPA (black circles), and 11 different BPA analogs (red squares and as indicated) at increasing concentrations. Responses are presented as mean fold activation in luciferase activity in comparison to solvent-exposed cells ± SEM from three independent experiments with three technical replicates (n = 9). The dose–response curves were created using nonlinear regression and the four parameter logistic fit in Graphpad Prism v.9. For comparison, the dose–response curve of BPA (black line) is indicated together with each individual BP tested (red line). *p < 0.05 versus solvent control by one-way ANOVA and Dunnett’s multiple comparison post hoc test.

[3] = target: T1, Atlantic cod androgen receptor alpha (gmAra) LBD; experiment: Luciferase reporter gene assay, gmAra agonism (androgenic activity) in transfected COS-7 cells
Experimental: as §1
Figure 3 Androgenic activity of bisphenols. COS-7 cells were transiently transfected with gmAra LBD and exposed individually to 12 bisphenol analogs at increasing concentrations. […] The dose–response curves were created using nonlinear regression and the four-parameter logistic fit in Graphpad Prism v.9. For comparison, the dose–response curve of BPA (black line) is indicated together with each individual BP tested (red line). *p < 0.05 versus solvent control by one-way ANOVA and Dunnett’s multiple comparison post hoc test.

Er [4] = test system: Er; parameters: method as in PMID 12651187; settings: carp; cited from earlier work
Er [5] = test system: Er; parameters: method as in doi:10.11403/jset.11.133; settings: medaka; cited from earlier work
[6] = target: T2, Atlantic cod estrogen receptor alpha (gmEra) LBD; experiment: Luciferase reporter gene assay, gmEra antagonism (antiestrogenic activity), coexposure with 3 nM EE2; type: cell-based; settings: coexposure with EE2 (3 nM, EC20)
Experimental: as §1
To investigate potential antiestrogenic effects, COS-7 cells transiently expressing gmEra LBD were exposed to the 12 bisphenols in binary mixtures with a fixed concentration of EE2 (3 nM, corresponding to EC20) (Figure 2 and Table 1).
as §2

SMILES: CC(C)(c1ccc(O)cc1)c1ccc(O)cc1 [BPA, Bisphenol A]
- effect on testosterone-mediated gmAra activity, result in words ([1]; BPs 0.003–50 μM with 5 nM testosterone): significantly decrease the testosterone-mediated Ara-activity
- IC50 ([1]; gmAra IC50, in the presence of 5 nM testosterone (EC20)): 0.14 µM
- EC50 (human Era): 0.63 µM
- maximal fold induction ([2]; COS-7, monkey, 24 h, read-out: gmEra Emax): 19.4
- gmEra Emax ([2]; fold activation in luciferase activity vs solvent control, 24 h exposure, * = statistically significant, a = plateau not reached, highest fold activation obtained, 1440 min): 19 fold activation
- EC50 ([2]; gmEra EC50, four-parameter logistic fit, 24 h exposure): 1.9 µM
- gmEra REP50 (relative potency EC50, EC50-bisphenol A/EC50-bisphenol X) ([2]; relative to BPA): 1.0
- EC50 [3]: 25.7 µM
- maximal fold induction ([3]; COS-7, monkey, 24 h, read-out: gmAra Emax): 1.6
- gmAra REP50 (relative potency EC50, EC50-bisphenol A/EC50-bisphenol X) ([3]; relative to BPA): 1.0
- EC50 (Er [4]): 26 µM
- EC50 (Er [5]): 0.59 µM
- antiestrogenic effect on gmEra, result in words [6]: did not antagonize gmEra; also recorded: no antiestrogenic effects
